Data as given in publication PMC11100771, “Structural basis of ligand specificity and channel activation in an insect gustatory receptor” (Cell reports, 2024).

Target: T1, Bombyx mori Gr9 (BmGr9) (Bombyx mori, UniProt B3GTD7)
T1 construct: N-terminally Twin-Strep-tagged BmGr9, homotetramer
T1 sequence (B3GTD7 1-449): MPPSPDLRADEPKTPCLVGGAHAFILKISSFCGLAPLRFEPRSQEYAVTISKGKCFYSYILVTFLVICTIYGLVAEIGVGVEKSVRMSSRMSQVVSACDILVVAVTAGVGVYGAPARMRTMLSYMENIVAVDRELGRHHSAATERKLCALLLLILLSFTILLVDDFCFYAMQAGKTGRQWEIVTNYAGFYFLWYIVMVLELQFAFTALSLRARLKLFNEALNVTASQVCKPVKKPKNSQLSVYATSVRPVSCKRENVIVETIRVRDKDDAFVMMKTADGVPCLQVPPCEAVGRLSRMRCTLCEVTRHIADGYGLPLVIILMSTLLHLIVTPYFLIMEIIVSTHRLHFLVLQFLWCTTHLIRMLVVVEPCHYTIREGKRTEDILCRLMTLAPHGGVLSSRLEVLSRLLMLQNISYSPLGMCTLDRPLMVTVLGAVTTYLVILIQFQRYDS
Experiment: cryo-EM structure ([…] Å) with […] D-fructose; EC50 by two-electrode voltage clamp in Xenopus oocytes
Assay type: cell-based

EC50: 22 mM
Structure (SMILES): OCC1(O)OC[C@@H](O)[C@@H](O)[C@@H]1O (stereo partly drawn) [D-fructose]
